≈ marks a conversion by molar mass, not a printed value.
What was measured:
[1] = Syringeability of dosing solutions (dripping-syringe method); type: physicochemical
Experimental: Table 4, below, provides evaluations of the syringeability of dosing solutions of selected florfenicol benzylic carbonate prodrugs at concentrations equivalent to 300 mg/ml florfenicol (30% weight/volume).
High concentrations of fenicol or fenicol drug contained in a fenicol prodrug are often necessary for convenient administration of the necessary amount of the desired amount of the antibiotic. Due to the limited solubility of fenicols in many organic solvents or mixtures of solvents acceptable for injectable formulations the choice of solvents for preparation of highly concentrated florfenicol solutions is limited. As a result highly concentrated solutions of fenicol drugs in organic solvents or solvent mixtures may become highly viscous and difficult to administer by a syringe. Therefore the ability of fenicol benzylic carbonate prodrugs to dissolve in a wider range of organic solvents or mixtures of solvents acceptable for injectable formulations offered the potential to prepare highly concentrated solutions for injections with lower viscosity. […] Test solutions of florfenicol benzylic carbonates containing concentrations of florfenicol (mg/mL) equivalent to the concentration present in Nuflor® formulation were prepared. Syringeabilities of the solutions were evaluated by means of the “dripping syringe” method in which the dripping times (sec) of equal volumes of such solutions under free gravitational flow conditions from a vertically positioned syringe were measured at 15° C. After removing the plunger from a 5 ml polyethylene disposable syringe (5 ml Luer, Norm-Ject Zentrish/Henke Saas Wolf GMBH) and fitting the syringe with a disposable needle (B-D® 16G1 Precision Glide/BentonDickinson & CO) the test solutions were loaded from the top into the syringe and the time necessary for the free flow of 2 mL of solution (between 3 ml and 1 ml marks) was recorded in triplicate. The syringeabilities relative to Nuflor® were calculated by dividing the dripping time for the test solutions (entries 1-12) by the dripping time measured for the commercial sample of Nuflor® formulation (entry 13) As it is evident from the results in Table 4 the syringeabilities of tested solutions containing benzyl alcohol as viscosity diluent had relative syringeabilities <1.00 and were therefore better than Nuflor® (30% weight/volume florfenicol solution in propylene glycol/polyethylene glycol 300/2-methyl pyrolidinone). Due to their better syringeability these solutions represent more favorable formulations for injectable delivery of florfenicol. Solution of the florfenicol benzylic carbonate of the example 2 in triacetin/2-pyrolidinone—1/1 lacking the benzyl alcohol viscosity diluent was the only solution with syringeability poorer that than that of Nuflor® (entry 5).

Aqueous solubility = type: physicochemical; conditions: aqueous medium (not further specified)
Experimental: In some therapeutic applications florfenicol is administered in concentrated organic solution subcutaneously where it is known to form localized depot of the drug which results in the desired sustained release of the drug into the circulation. In such cases solubility of florfenicol in aqueous media represents one of important factors determining the rate of the sustained release. Another important factor affecting the sustained release of florfenicol from the subcutaneous depot site is the concentration of the dosing solution and the solvent composition of the formulation. Apart from the broader range of solvents which can be used for acceptable formulations of florfenicol benzylic carbonate prodrugs these prodrugs also allow a wide range of aqueous solubilities. Solubilities achieved with these prodrugs range from slightly to dramatically lower than that of florfenicol. Reduced aqueous solubilities of such prodrugs may be useful in controlling the rate of dissolution of the prodrug at the subcutaneous depot site and may allow achieving optimized sustained release of the parent drug.

[2] = In vitro enzymatic release of parent florfenicol from prodrugs in bovine serum; type: in vitro ADME; conditions: for Florfenicol released from prodrugs (% of total) after treatment with bovine serum: 37° C.; for rates of florfenicol release in serum: bovine serum, among the compounds tested
Text: The ability of a prodrug derivative of a parent drug molecule to act efficiently in vivo as a source of the free parent drug determines the utility of a particular prodrug for treatment. The prodrug's ability to release the parent drug in vivo, in the presence of endogenous enzymes, can be determined by measuring the systemic levels of the parent drug after administration of the prodrug to the animal. This releasibility can also be assessed in vitro by measuring the release of the parent drug after mixing with animal whole blood, plasma or serum. Selected benzylic carbonate prodrugs of florfenicol were tested for release of florfenicol after in vitro mixing with bovine serum. […] A general trend of more lipophilic carbonates of florfenicol showing higher rates of degradation and release seems to be present among the compounds tested.
50 microliter of stock solution of carbonate pro-drug (10 mg/mL in DMSO) was added to 5 mL donor bovine serum and mixed. Aliquots of 400 microliter of the resulting solution were transferred into 1.5 mL plastic centrifuge tubes. Each plastic tube was placed into at 37° C. water bath for incubation. Samples were removed at 0, 1, 2, 4, 8, and 24 hours, and after addition of 400 microliter of acetonitrile to stop the reaction, rapidly stirred for 30 seconds. The precipitate was removed by centrifugation on an Eppendorf 5415G at 14000 rpm for 5 minutes. The clear supernatant solution was sampled for the HPLC analysis. The peak area of florfenicol was used to calculate the conversion of the prodrugs.

[3] = Solubility in triacetin/benzyl alcohol 2:1 (volume/volume) solvent mixture; type: physicochemical; conditions: 20° C.
Experimental: Florfenicol parent drug was not soluble in triacetin/benzyl alcohol 2:1 (volume/volume) even at concentrations as low as 10% (weight/volume). […] The combination of prodrug of Example 14 at 275 mg/ml and florfenicol at 100 mg/ml was soluble in triacetin/benzyl alcohol 2:1 (volume/volume) and provided a stable solution with 30% (weight/volume) content of florfenicol (Table 4, supra, entry 12).

[4] = prodrug concentration equivalent to 300 mg/ml florfenicol, Triacetin/benzyl alcohol/2-pyrolidinone - 2:1:1.5, 15° C.
[5] = prodrug concentration equivalent to 300 mg/ml florfenicol, Triacetin/benzyl alcohol - 2:1 (vol/vol), 15° C.
[6] = prodrug concentration equivalent to 300 mg/ml florfenicol, Triacetin/benzyl alcohol - 2:1 (vol/vol), free flow of 2 mL at 15° C.
[7] = 300 mg/ml, N-methyl 2-pyrolidinone/propylene glycol/polyethylene glycol 300, 15° C.

Structure (SMILES) | solubility (Aqueous solubility) | Florfenicol released from prodrugs (% of total) after treatment with bovine serum ([2]; 0 h) | melting point | Solubility at selected concentration of contained florfenicol ([3]; 10% weight/volume florfenicol) | Solubility at selected concentration of contained florfenicol ([3]; 20% weight/volume florfenicol) | Solubility at selected concentration of contained florfenicol ([3]; 25% weight/volume florfenicol) | Solubility at selected concentration of contained florfenicol ([3]; 30% weight/volume florfenicol) | Solubility at selected concentration of contained florfenicol ([3]; 35% weight/volume florfenicol) | Solubility at selected concentration of contained florfenicol ([3]; 37% weight/volume florfenicol) | Solubility at selected concentration of contained florfenicol ([3]; 40% weight/volume florfenicol) | other results
CC(C)OC(=O)O[C@H](c1ccc(S(C)(=O)=O)cc1)[C@@H](CF)NC(=O)C(Cl)Cl [Example 4, (1R,2S)-2-(2,2-dichloroacetamido)-3-fluoro-1-(4-(methylsulfonyl)phenyl)propyl isopropyl carbonate] | 100 µg/mL (≈ 225 µM) | BQL | 148 to 150 °C |  |  |  |  |  |  |  | Syringeability measurement: Dripping time [1, 4]: 164 ± 3 s; Syringeability measurement: Relative to NUFLOR [1, 4]: 0.70; Florfenicol released from prodrugs (% of total) after treatment with bovine serum ([2]; 1 h): BQL; Florfenicol released from prodrugs (% of total) after treatment with bovine serum ([2]; 2 h): BQL
CC(C)COC(=O)O[C@H](c1ccc(S(C)(=O)=O)cc1)[C@@H](CF)NC(=O)C(Cl)Cl [Example 5, (1R,2S)-2-(2,2-dichloroacetamido)-3-fluoro-1-(4-(methylsulfonyl)phenyl)propyl isobutyl carbonate] | 7 µg/mL (≈ 15.3 µM) |  | 156 to 158 °C |  |  |  |  |  |  |  | 
CS(=O)(=O)c1ccc([C@@H](OC(=O)OCC2CC2)[C@@H](CF)NC(=O)C(Cl)Cl)cc1 [Example 6, Cyclopropylmethyl(1R,2S)-2-(2,2-dichloroacetamido)-3-fluoro-1-(4-(methylsulfonyl)phenyl)propyl carbonate] | 120 µg/mL (≈ 263 µM) |  | 132 to 134 °C |  |  |  |  |  |  |  | 
CC(C)CCOC(=O)O[C@H](c1ccc(S(C)(=O)=O)cc1)[C@@H](CF)NC(=O)C(Cl)Cl [Example 8, (1R,2S)-2-(2,2-dichloroacetamido)-3-fluoro-1-(4-(methylsulfonyl)phenyl)propyl isopentyl carbonate] | 25 µg/mL (≈ 52.9 µM) | BQL | 120 to 122 °C |  |  |  |  |  |  |  | Syringeability measurement: Dripping time [1, 4]: 157 ± 1 s; Syringeability measurement: Relative to NUFLOR [1, 4]: 0.67; rates of florfenicol release in serum [2]: highest rates
COCCOC(=O)O[C@H](c1ccc(S(C)(=O)=O)cc1)[C@@H](CF)NC(=O)C(Cl)Cl [Example 11, (1R,2S)-2-(2,2-dichloroacetamido)-3-fluoro-1-(4-(methylsulfonyl)phenyl)propyl 2-methoxyethyl carbonate] | 770 µg/mL (≈ 1670 µM) |  |  |  |  |  |  |  |  |  | 
CCOCCOC(=O)O[C@H](c1ccc(S(C)(=O)=O)cc1)[C@@H](CF)NC(=O)C(Cl)Cl [Example 12, (1R,2S)-2-(2,2-dichloroacetamido)-3-fluoro-1-(4-(methylsulfonyl)phenyl)propyl 2-ethoxyethyl carbonate] | 350 µg/mL (≈ 738 µM) |  | 88 to 90 °C |  |  |  |  |  |  |  | 
CCCCOCCOC(=O)O[C@H](c1ccc(S(C)(=O)=O)cc1)[C@@H](CF)NC(=O)C(Cl)Cl [Example 13, (1R,2S)-2-(2,2-dichloroacetamido)-3-fluoro-1-(4-(methylsulfonyl)phenyl)propyl 2-butoxyethyl carbonate] | 150 µg/mL (≈ 299 µM) | BQL |  | soluble | soluble | soluble | soluble | soluble | soluble | soluble | Syringeability measurement: Relative to NUFLOR [1, 5]: 0.61; Syringeability measurement: Dripping time [1, 6]: 141 ± 5 s; Florfenicol released from prodrugs (% of total) after treatment with bovine serum ([2]; 1 h): BQL
CS(=O)(=O)c1ccc([C@@H](OC(=O)OCc2ccccc2)[C@@H](CF)NC(=O)C(Cl)Cl)cc1 [Example 14, Benzyl(1R,2S)-2-(2,2-dichloroacetamido)-3-fluoro-1-(4-(methylsulfonyl)phenyl)propyl carbonate] | 32 µg/mL (≈ 65 µM) | BQL | 105 to 106 °C | soluble | soluble | soluble | soluble | soluble | soluble | insoluble | Syringeability measurement: Relative to NUFLOR [1, 5]: 0.88; Syringeability measurement: Dripping time [1, 6]: 204 ± 9 s; rates of florfenicol release in serum [2]: highest rates
CCOC(=O)[C@H](C)OC(=O)O[C@H](c1ccc(S(C)(=O)=O)cc1)[C@@H](CF)NC(=O)C(Cl)Cl [Example 17] | 550 µg/mL (≈ 1090 µM) |  | 44 to 54 °C |  |  |  |  |  |  |  | 
CS(=O)(=O)c1ccc([C@@H](O)[C@@H](CF)NC(=O)C(Cl)Cl)cc1 [Florfenicol, D-(threo)-1-(4-methylsulfonylphenyl)-2-dichloroacetamido-3-fluoro-1-propanol, reference compound] | 1530 µg/mL (≈ 4270 µM) |  |  | not soluble | insoluble | insoluble | insoluble | insoluble | insoluble | insoluble | Syringeability measurement: Dripping time [1, 7]: 233 ± 2 s; Syringeability measurement: Relative to NUFLOR [1, 7]: 1.00; Solubility at selected concentration of contained florfenicol ([3]; 10% weight/volume florfenicol, listed as florfenicol): insoluble

Source: patent US8119667B2, “Carbonates of fenicol antibiotics” (Schering-Plough Animal Health Corporation, priority 2005, dated 2012)
